The subject of assay [1] is Crabgrass (Digitaria sanguinalis). Put plainly: Pre-emergent herbicidal test, Crabgrass. The conditions noted are these: 504 h, pre-emergence, 33 micrograms/cm^2, 3 weeks. It is filed as in vivo. Here is the method:
(§1) An acetone solution of the test compound was prepared by mixing 750 mg of the compound, 220 mg of a nonionic surfactant and 25 ml of acetone. This solution was added to approximately 125 ml of water containing 156 mg of surfactant.
(§2) Seeds of the test vegetation were planted in a pot of […] and the test solution was sprayed uniformly onto the soil surface at a dose of 33 micrograms/cm^2. The pot was watered and placed in a greenhouse. […] At the end of this period, the herbicidal effectiveness of the compound was rated based on the physiological observations. A 0-to-100 scale was used, 0 representing no phytotoxicity, 100 representing complete kill.

In assay [2] the test system is Spirulina maxima. Put plainly: Algae control, Spirulina. It is filed as cell-based. The following applies: Limnospira maxima, 7 to 10 days, read-out: Algicidal Activity % Control Spirulina. Here is the method: (§3) Representative compounds of the invention were tested as aquatic herbicides and algicides by the following method. The weed test species were Lemna minor, Elodea canadensis and the algae used was Spirulina maxima.
(§4) An acetone solution of the test compound and a small amount of an alkylarylpolyoxyethylene glycol-containing surfactant was prepared. This solution was mixed with a nutrient solution in quantity sufficient to give a concentration of 2 ppm. Eight oz. plastic cups were filled with 150 ml of this solution. A sample of the test, Lemna and Elodea, was added together to each cup. Forty ml of Spirulina culture with the 2 ppm treatment was placed in 11/2 oz plastic cups (#4 glass vials used after June 9, 1980). The containers were then placed in an illuminated environment maintained at a temperature of about 20° C. for incubation. The containers were observed periodically for growth (as compared to an untreated check). The effectiveness of the test compound was determined based on a final observation of growth after 7 to 10 days. The results of the test on a 0-to-100 basis--0 indicating no effectiveness and 100 indicating complete effectiveness--are reported in Table IV.

For assay [3], the system named is Watergrass (Ethinochloa crusgalli). Description: Pre-emergent herbicidal test, Watergrass. In kind it is in vivo. The conditions noted are these: 504 h; pre-emergence; 33 micrograms/cm^2; 3 weeks. Here is the method: as §1, §2
The subject of assay [4] is Lambsquarter (Chenopodium album). Description: Pre-emergent herbicidal test, Lambsquarter. In kind it is in vivo. The following applies: 504 h, pre-emergence, 33 micrograms/cm^2, 3 weeks, read-out: Herbicidal Activity Pre-Emergence % Control L'Qtr. Here is the method: as §1, §2
For assay [5], the system named is Watergrass (Ethinochloa crusgalli). Put plainly: Post-emergent herbicidal test, Watergrass. The conditions noted are these: 504 h; post-emergence; 33 micrograms/cm^2; 3 weeks. It is filed as in vivo.
The subject of assay [6] is Rhizoctonia solani. Description: Mycelial inhibition, Rhizoctonia. In kind it is cell-based. The following applies: 24 hours, relative to standard DIFOLATAN, read-out: Mycelial inhibition, % Standard, Rhizoc. Here is the method:
(§5) A number of the compounds of the present invention were evaluated for in-vitro fungicidal effectiveness by means of a mycelial inhibition test. This test is designed to measure the fungitoxic activity of fungicidal chemicals in terms of their degree of inhibition of mycelium growth. Each compound to be tested was dissolved in acetone to 500 ppm concentration. Paper strips were infused with the particular mycelium growth by covering the paper with a potato dextrose broth culture of mycelial suspension. The papers were then placed on potato dextrose agar plates and sprayed by means of a microsprayer with the fungicidal solution. The treated paper strips were incubated at 25° C. and the data is taken after 24 hours. Fungicidal activities are measured by a zone of inhibited mycelial growth from the center of the paper strip. The effectiveness of the compounds tested for fungicidal activity is reported in Table IIa for those compounds which were effective in inhibiting mycelial growth. The activity is reported in terms of [formula]

In assay [7] the test system is Pigweed (Amaranthus retraflexus). Put plainly: Post-emergent herbicidal test, Pigweed. In kind it is in vivo. The following applies: 504 h, post-emergence, 33 micrograms/cm^2, 3 weeks.
The subject of assay [8] is Lemna minor. Description: Aquatic weeds control, Lemna. The conditions noted are these: 7 to 10 days, read-out: Algicidal Activity % Control Lemna. It is filed as in vivo. Here is the method:
as §3, §4

Assay [9] relates to Soybean. Put plainly: Post-emergent herbicidal test, Soybean. In kind it is in vivo. The following applies: Glycine max, 504 h; post-emergence; 33 micrograms/cm^2; 3 weeks; read-out: Herbicidal Activity Post-Emergence % Control Soybean.
Assay [10] has as its system Mustard (Brassica arvensis). Description: Post-emergent herbicidal test, Mustard. In kind it is in vivo. The conditions noted are these: 504 h, post-emergence, 33 micrograms/cm^2, 3 weeks.
Assay [11] concerns Fusarium Moniliforme. Description: Mycelial inhibition, Fusarium. In kind it is cell-based. The conditions noted are these: Fusarium verticillioides, 24 hours, relative to standard DIFOLATAN
Here is the method:
as §5

Assay [12] deals with Botrytis Cineria. Description: Mycelial inhibition, Botrytis. It is filed as cell-based. The conditions noted are these: 24 hours, relative to standard DIFOLATAN
Here is the method: as §5

Assay [13] has as its system Crabgrass (Digitaria sanguinalis). Description: Post-emergent herbicidal test, Crabgrass. In kind it is in vivo. The conditions noted are these: 504 h, post-emergence, 33 micrograms/cm^2, 3 weeks.
Assay [14] deals with Lambsquarter (Chenopodium album). Description: Post-emergent herbicidal test, Lambsquarter. It is filed as in vivo. The following applies: 504 h, post-emergence, 33 micrograms/cm^2, 3 weeks, read-out: Herbicidal Activity Post-Emergence % Control L'Qtr.
Assay [15] has as its system Aspergillus Niger. Put plainly: Mycelial inhibition, Aspergillus. In kind it is cell-based. The conditions noted are these: 24 hours, relative to standard DIFOLATAN, read-out: Mycelial inhibition, % Standard, Asper. Here is the method: as §5
Assay [16] deals with Pigweed (Amaranthus retraflexus). Description: Pre-emergent herbicidal test, Pigweed. The following applies: 504 h, pre-emergence, 33 micrograms/cm^2, 3 weeks. It is filed as in vivo. Here is the method: as §1, §2
Assay [17] has as its system Elodea canadensis. Description: Aquatic weeds control, Elodea. In kind it is in vivo. The conditions noted are these: 7 to 10 days, read-out: Algicidal Activity % Control Elodea. Here is the method:
as §3, §4

Assay [18] concerns Soybean. Put plainly: Pre-emergent herbicidal test, Soybean. In kind it is in vivo. The conditions noted are these: Glycine max, 504 h; pre-emergence; 33 micrograms/cm^2; 3 weeks; read-out: Herbicidal Activity Pre-Emergence % Control Soybean. Here is the method: as §1, §2

As a reminder, the inhibition is the percentage by which the read-out fell short of the control.

On to `C=C1SC(SCSC#N)=NC12CCCCC2` [Compound 8], for which the pest or weed control at 33 µg/cm2 turned out to be 0% in assay [1]; 0% in assay [3]; 0% in assay [4]; 38% in assay [5]; 50% in assay [7]; 25% in assay [10]. Further, the pest or weed control at 33 µg/cm2 came to 20% in assay [13], 40% in [14] and 0% in assay [16]. Further, the activity at 2 ppm is 70% in assay [2], 60% in assay [8] and 80% in assay [17]. For the same compound, the inhibition at 500 ppm worked out at 71% in assay [6], 0% in [11], 26% in [12] and 77% in assay [15]. Further, the plant injury at 33 µg/cm2 in assay [9] came out at 33%; in assay [18], 0%.

These data come from US4365989A, “2-Thiocyanomethylthio-4,4-dialkyl-5-substituted-thiazoline fungicides” (Chevron Research Company, priority 1982, dated 1982).
